What was measured:
woolly cupgrass = experiment: Test C pre-/postemergence herbicide test; assay type: in vivo, Eriochloa villosa
Procedure, shortened: (§1)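 Seeds were planted and sprayed preemergence with test chemicals in a non-phytotoxic solvent mixture containing surfactant; postemergence treatments went onto plants 2 to 18 cm tall (1- to 4-leaf stage). After 12 to 14 days in a greenhouse, injury was rated visually against untreated controls on a 0–100 scale.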

lambsquarters = experiment: Test C pre-/postemergence herbicide test; assay type: in vivo, Chenopodium album
Procedure, shortened: as §1

corn = experiment: Test C pre-/postemergence herbicide test; assay type: in vivo, Zea mays
Procedure, shortened: as §1

johnsongrass = experiment: Test C pre-/postemergence herbicide test; assay type: in vivo, Sorghum halepense
Procedure, shortened: as §1

kochia = experiment: Test C pre-/postemergence herbicide test; assay type: in vivo, Kochia scoparia
Procedure, shortened: as §1

rice = experiment: Test C flooded paddy test; assay type: in vivo, Oryza sativa; details: for Plant response rating, Rice: 500 g ai/ha, visual rating after 12 to 14 days
Procedure, shortened: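 Injury scored visually against controls on a 0 (no effect) to 100 (complete control) scale, 12 to 14 days after treatment in greenhouse. Flooded paddy plants treated at 2-leaf stage; postemergence plants at 1- to 4-leaf stage, 2 to 18 cm tall.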

large crabgrass = experiment: Test C pre-/postemergence herbicide test; assay type: in vivo, Digitaria sanguinalis
Procedure, shortened: as §1

ducksalad = experiment: Test C flooded paddy test; assay type: in vivo, Heteranthera limosa; details: for Plant response rating, Ducksalad: 500 g ai/ha, visual rating after 12 to 14 days
[1] = 62 g ai/ha, preemergence, scale 0 to 100
[2] = 250 g ai/ha, scale 0-100, preemergence
[3] = 500 g ai/ha, scale 0 to 100 (0 no effect, 100 complete control), visual, 12 to 14 days, preemergence
[4] = 125 g ai/ha, scale 0 to 100 (0 no effect, 100 complete control)
[5] = 250 g ai/ha, scale of 0 to 100, 0 is no effect, 100 is complete control
[6] = scale 0 to 100 (0 no effect, 100 complete control)
[7] = Postemergence, 250 g ai/ha, scale 0 to 100, 0 no effect, 100 complete control
[8] = postemergence, 125 g ai/ha, scale 0 to 100
[9] = postemergence, 62 g ai/ha, scale 0 to 100
[10] = 62 g ai/ha, scale 0 to 100 (0 no effect, 100 complete control)
[11] = 125 g ai/ha, scale of 0 to 100, 0 is no effect, 100 is complete control
[12] = 31 g ai/ha, preemergence, scale 0 to 100
[13] = 125 g ai/ha, scale 0 (no effect) to 100 (complete control), visual, 12 to 14 days, preemergence

SMILES: CCC1=NN(C(C)(C)C)CC1C(=O)Nc1cc(C(=O)N(C)CC)ccc1F (racemic) [Compound 342]
- Plant response rating, Cupgrass, Woolly (woolly cupgrass; [1]): 10
- Plant response rating (0 = no effect, 100 = complete control), Cupgrass, Woolly (woolly cupgrass; 125 g ai/ha, preemergence): 40
- Plant response rating, Cupgrass, Woolly (woolly cupgrass; [2]): 50
- Plant response rating, Cupgrass, Woolly (woolly cupgrass; [3]): 70
- Plant response rating, Lambsquarters (lambsquarters; [1]): 70
- Plant response rating (0 = no effect, 100 = complete control), Lambsquarters (lambsquarters; 125 g ai/ha, preemergence): 90
- Plant response rating, Lambsquarters (lambsquarters; [2]): 100
- Plant response rating, Lambsquarters (lambsquarters; [3]): 100
- Plant response rating, Corn (corn; [1]): 10
- Plant response rating (0 = no effect, 100 = complete control), Corn (corn; 125 g ai/ha, preemergence): 50
- Plant response rating, Corn (corn; [2]): 70
- Plant response rating, Corn (corn; [3]): 90
- Plant response rating, Johnsongrass (johnsongrass; [1]): 55
- Plant response rating (0 = no effect, 100 = complete control), Johnsongrass (johnsongrass; 125 g ai/ha, preemergence): 100
- Plant response rating, Johnsongrass (johnsongrass; [2]): 100
- Plant response rating, Johnsongrass (johnsongrass; [3]): 100
- Plant response rating, Kochia (kochia; [1]): 50
- Plant response rating (0 = no effect, 100 = complete control), Kochia (kochia; 125 g ai/ha, preemergence): 100
- Plant response rating, Kochia (kochia; [2]): 100
- Plant response rating, Kochia (kochia; [3]): 100
- Rice plant response rating (rice; 62 g ai/ha, scale 0 to 100): 20
- Rice plant response rating (rice; [4]): 30
- Rice plant response rating (rice; [5]): 60
- Plant response rating, Rice (rice; [6]): 80
- Plant response rating, Crabgrass, Large (large crabgrass; [1]): 60
- Plant response rating (0 = no effect, 100 = complete control), Crabgrass, Large (large crabgrass; 125 g ai/ha, preemergence): 60
- Plant response rating, Crabgrass, Large (large crabgrass; [2]): 70
- Plant response rating, Crabgrass, Large (large crabgrass; [3]): 85
- Ducksalad plant response rating (ducksalad; 62 g ai/ha, scale 0 to 100): 50
- Ducksalad plant response rating (ducksalad; [4]): 50
- Ducksalad plant response rating (ducksalad; [5]): 80
- Plant response rating, Ducksalad (ducksalad; [6]): 80

SMILES: CCn1nc(C(C)(C)C)cc1C(=O)Nc1cccc(C(=O)OC)c1 [Compound 81]
- Plant response rating, Cupgrass, Woolly (woolly cupgrass; [7]): 5
- Plant response rating, Cupgrass, Woolly (woolly cupgrass; [8]): 5
- Plant response rating, Cupgrass, Woolly (woolly cupgrass; [9]): 5
- Plant response rating, Lambsquarters (lambsquarters; [7]): 5
- Plant response rating, Lambsquarters (lambsquarters; [8]): 5
- Plant response rating, Lambsquarters (lambsquarters; [9]): 5
- Plant response rating, Corn (corn; [7]): 40
- Plant response rating, Corn (corn; [8]): 40
- Plant response rating, Corn (corn; [9]): 40
- Plant response rating, Johnsongrass (johnsongrass; [7]): 5
- Plant response rating, Johnsongrass (johnsongrass; [8]): 0
- Plant response rating, Johnsongrass (johnsongrass; [9]): 0
- Plant response rating, Kochia (kochia; [7]): 70
- Plant response rating, Kochia (kochia; [8]): 20
- Plant response rating, Kochia (kochia; [9]): 0
- Rice plant response rating (rice; [10]): 20
- Rice plant response rating (rice; [11]): 20
- Rice plant response rating (rice; [5]): 30
- Plant response rating, Rice (rice; [6]): 40
- Plant response rating, Crabgrass, Large (large crabgrass; [7]): 30
- Plant response rating, Crabgrass, Large (large crabgrass; [8]): 10
- Plant response rating, Crabgrass, Large (large crabgrass; [9]): 5
- Ducksalad plant response rating (ducksalad; [10]): 0
- Ducksalad plant response rating (ducksalad; [11]): 0
- Ducksalad plant response rating (ducksalad; [5]): 20
- Plant response rating, Ducksalad (ducksalad; [6]): 20

SMILES: CCC(=NO)c1cccc(NC(=O)c2cc(C(C)(C)C)nn2C)c1 [Compound 118]
- Plant response rating, Cupgrass, Woolly (woolly cupgrass; [12]): 0
- Plant response rating (0 = no effect, 100 = complete control), Cupgrass, Woolly (woolly cupgrass; 62 g ai/ha, preemergence): 0
- Plant response rating, Cupgrass, Woolly (woolly cupgrass; [13]): 0
- Plant response rating, Lambsquarters (lambsquarters; [12]): 50
- Plant response rating (0 = no effect, 100 = complete control), Lambsquarters (lambsquarters; 62 g ai/ha, preemergence): 50
- Plant response rating, Lambsquarters (lambsquarters; [13]): 60
- Plant response rating, Corn (corn; [12]): 0
- Plant response rating (0 = no effect, 100 = complete control), Corn (corn; 62 g ai/ha, preemergence): 0
- Plant response rating, Corn (corn; [13]): 10
- Plant response rating, Johnsongrass (johnsongrass; [12]): 30
- Plant response rating (0 = no effect, 100 = complete control), Johnsongrass (johnsongrass; 62 g ai/ha, preemergence): 40
- Plant response rating, Johnsongrass (johnsongrass; [13]): 100
- Plant response rating, Kochia (kochia; [12]): 10
- Plant response rating (0 = no effect, 100 = complete control), Kochia (kochia; 62 g ai/ha, preemergence): 20
- Plant response rating, Kochia (kochia; [13]): 20
- Rice plant response rating (rice; [10]): 20
- Rice plant response rating (rice; [11]): 30
- Rice plant response rating (rice; [5]): 40
- Plant response rating, Rice (rice; [6]): 50
- Plant response rating, Crabgrass, Large (large crabgrass; [12]): 10
- Plant response rating (0 = no effect, 100 = complete control), Crabgrass, Large (large crabgrass; 62 g ai/ha, preemergence): 70
- Plant response rating, Crabgrass, Large (large crabgrass; [13]): 100
- Ducksalad plant response rating (ducksalad; [10]): 0
- Ducksalad plant response rating (ducksalad; [11]): 50
- Ducksalad plant response rating (ducksalad; [5]): 50
- Plant response rating, Ducksalad (ducksalad; [6]): 50

Reference: patent US20060069132A1, “Azolecarboxamide herbicides” (priority 2004, published 2006)
